How the values were obtained:
[1] = test system: acne; test: case study of topical beta-sitosterol treatment of acne; type: in vivo; details: for reduction in acne: end of study, after four weeks of application; for mean reduction in acne: first week
Source text: This vehicle containing the beta-sitosterol is applied to the sites of the subcutaneous gland disorders on a twice daily basis (morning and evening).
FIG. 4 is a table indicating the results found in a case study.
The study used a cross section of the population having a distribution of sexes, ages, and areas being affected.
At the end of the study, after four weeks of application, the women found a fifty percent reduction with the men showing a forty-five percent reduction.

[2] = alcohols; cited from earlier work

In the case of `CCC(CCC(C)C1CCC2C3CC=C4CC(O)CCC4(C)C3CCC12C)C(C)C` (stereo not drawn) [beta-sitosterol, 17-(5-Ethyl-6-methylheptan-2-yl)-10-13-dimethyl-2,3,4,7,8,9,11,12,14,16,17-deodeccahydrom-1H-cyclopental(alpha)phenanthren-3-ol], the “change of acne in the affected areas” value ([1]; all cases, start of use) is reported as “immediate reduction in the acne”, the “change of acne with continuous use” value ([1]; all of the subjects, continuous use) is reported as “further reductions in acne” and the reduction in acne ([1]; men) is reported as “forty-five”. The “mean reduction in acne” value ([1]; men) was 10%, the reduction in acne ([1]; women) was “fifty” and the “mean reduction in acne” value ([1]; women) was 10%. The solubility [2] was “hydrophobic and soluble in alcohols”.
